# Measurements as given in US20260257992A1, “AGONISTS OF SMALL HETERODIMER PARTNER FOR CANCER THERAPY” (THE BOARD OF TRUSTEES OF THE UNIVERSITY OF ILLINOIS, priority 2023, published 2026).
# Tests used:
# Aqueous solubility = format: physicochemical
# Treg expansion [1] = experiment: Treg expansion with PBMC-derived DCs of healthy volunteers; format: cell-based, human; details: cells from healthy volunteers
# NR0B2 = biological target: T1, NR0B2 (Homo sapiens, UniProt Q15466); experiment: ABCA1 reporter screen to identify NR0B2 agonists (HepG2); format: cell-based; parameters: key: ✓: using strict cutoffs with respect to DSHN for passing each metric; X: using strict cutoffs with respect to DSHN for passing each metric; details: HepG2, 50 μM test compound, 1 μM GW3965; pass/fail with respect to DSHN
# T1 construct: a reporter assay which makes use of the endogenous cholesterol homeostatic feedback loop; endogenous in cells; host or cells: HepG2
# T1 sequence (Q15466 1-257): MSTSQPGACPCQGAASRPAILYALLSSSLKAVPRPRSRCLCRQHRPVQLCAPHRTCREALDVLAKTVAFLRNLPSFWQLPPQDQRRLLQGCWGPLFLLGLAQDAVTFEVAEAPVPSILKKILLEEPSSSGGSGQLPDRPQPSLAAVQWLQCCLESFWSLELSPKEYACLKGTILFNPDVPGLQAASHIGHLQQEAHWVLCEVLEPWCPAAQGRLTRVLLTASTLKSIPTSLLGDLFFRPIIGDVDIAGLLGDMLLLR
# Source text: Development of a more efficacious NR0B2 agonist. While DSHN was a useful proof-of-concept small molecule, macrophages required high doses and chronic exposure for robust influences on subsequent Tregs expansion. […] Therefore, we synthesized several derivatives of DSHN and screened them using a reporter assay which makes use of the endogenous cholesterol homeostatic feedback loop, where FXR activation upregulates NR0B2, which then inhibits LXR and its normal induction of ABCA1. We then followed this screen with several others with stringent cutoffs: effect on endogenous ABCA1 and IL1β expression, reduction of Treg expansion in either macrophage or DC co-cultures, and low cellular toxicity (FIG. 5A, Table 4).
# Screening to identify NR0B2 agonists. HepG2 cells were co-transfected with ABCA1 renilla reporter plasmid and TK-control firefly luciferase vector at 20:1 using Lipofectamine 3000 reagent according to manufacturer's instructions for 24 hrs. Afterwards, 7000 cells were seeded in to 384 well f-bottom, white plates (Greiner Bio-One). Test compounds were added to the plates in a final working volume of 30 μL (for a final concentration of 50 μM) in presence of DMSO or 1 μM GW3965 and incubated for 20-24 hrs at 37° C. Luciferase activity was measured using the Luc-Pair Duo-Luciferase HT Assay kit (GeneCopoeia, Rockville, MD, USA) by adding luciferase substrates sequentially following manufacturer instructions. Luminescence was measured with 2 s integration times in a microplate reader (BioTek Cytation 5), 15 min after adding each substrate. The addition of reagents to the microplates was timed at each step to match the reading time delays and reading sequence of the microplate reader.
# Treg expansion [2] = experiment: Treg expansion in co-culture with compound-treated splenic CD11C+ dendritic cells; format: cell-based, mouse; parameters: key to Treg expansion Dendritic Cells: ✓: using strict cutoffs with respect to DSHN for passing each metric; X: using strict cutoffs with respect to DSHN for passing each metric
# Protocol: Preparation of Bone Marrow-Derived Macrophages (BMDMs) and Dendritic Cells. Bone marrow cells were collected from mouse tibia and femur. Cells were passed through 70-micron cell strainer and subsequently cultured 10 mL complete RPMI media supplemented with 20 ng/mL of recombinant murine M-CSF (576406; BioLegend, 315-02 PeproTech). On day 3, additional 5 ml of the complete media was added. On day 7, media was replaced. BMDMs were harvested on day 10 using cell stripper solution for further experiments. Dendritic cells were isolated from the spleens of wildtype, using mouse CD11c UltraPure MicroBeads (130-125-835; Miltenyi Biotec) according to the manufacturer's instructions) and cultured in RPMI medium supplemented with 10% heat-inactivated charcoal-stripped FBS, 50 μM β-mercaptoethanol, 1% sodium pyruvate, 1% nonessential amino acids, % penicillin/streptomycin, and 1% Glutamax.
# In vitro Treg expansion assays. T cells were cultured in RPMI medium supplemented with 10% heat-inactivated charcoal-stripped FBS, 50 μM β-mercaptoethanol (Gibco), 1% sodium pyruvate, 1% nonessential amino acids, % penicillin/streptomycin, and 1% Glutamax (Gibco). Naïve CD4^+ T cells were isolated from the spleens of wildtype and OT-II, using Naive CD4^+ T Cell Isolation Kit (Miltenyi Biotec according to the manufacturer's instructions). T cells were labeled with the vital dye CFSE (BioLegend) or Cell Trace Violet (ThermoFisher) according to the manufacturer's instructions. For wildtype Treg expansion in presence of antigen presenting cells, naïve CD4^+ T cells were co-cultured with APC at indicated ratio in the presence of 0.5 μg/mL (anti-CD3 BioLegend), 0.5 ng/mL TGFβ (BioLegend) and 0.5 ng/ml IL-2 (BioLegend) for 72 hr at 37° C. For OT-II Treg expansion, OTII naïve CD4^+ T cells from OT-II mice were activated by antigen presentation by culturing BMDMs were primed with 10 μg/mL OVA323-339 (Bachem) and 0.5 μg/mL LPS (Sigma). naïve CD4+ T cells from OTII mice were co-cultured with primed APC at indicated ratio for 72 hrs. After 72 hrs of culture, cells were transferred into V-bottom plates (BD), pelleted by centrifugation and incubated with antibody staining mix containing Ghost Dye™ Red 780 viability dye diluted in PBS for 15 minutes at 4° C. Cell surface antigens were stained for 15 minutes at 4° C. with an antibody staining mix containing Ghost Dye™ Red 780 viability dye diluted in PBS. Cells were fixed and permeabilized with BD Cytofix/Cytoperm™ for 20 minutes at 4° C. Antibodies against intracellular antigens were diluted in 1×BD Perm/Wash™ buffer and cells were stained for 30 minutes at 4° C. Cytometry data were acquired on a LSRII, Fortessa, Symphony A1 (Becton Dickinson, NJ). Foxp3 induction was assessed by expression of FOXP3.
SMILES,Aqueous solubility (Aqueous solubility),"Treg expansion, human PBMC-derived DCs (Treg expansion [1])",ABCA1 reporter screen (NR0B2),"Tregs, splenic CD11C+ (DC-enriched) cells (Treg expansion [2]; 50 μM DSHN-OMe versus 100 μM DSHN)",Treg expansion Dendritic Cells (Treg expansion [2]; pass/fail with respect to DSHN)
"CCN(CC)S(=O)(=O)c1cccc2cc(C(=O)O)c(O)cc12 [DSHN, reference compound]",poor aqueous solubility,decreased Treg expansion,–,–,–
"CCN(CC)S(=O)(=O)c1cccc2cc(C(=O)OC)c(O)cc12 [DSHN-OMe, Methyl 5-(N,N-diethylsulfamoyl)-3-hydroxy-2-naphthoate]",–,–,✓,significantly fewer Tregs compared to twice the dose of DSHN,✓
